Measured values taken from US8663914B2, “System and method for controlling bacterial cells with weak electric currents” (Syracuse University, priority 2009, dated 2014).
Values after ≈ are worked out from the molar mass of the structure shown. Read-outs that look alike come from different tables or passages of the source.

Key:
[1] = tested on: E. coli HM22 persister cells; assay: ROS accumulation (H2DCFDA fluorescence) and CFU count of E. coli HM22 persister cells treated with current and/or H2O2; format: cell-based
Experimental: Thus, the treatment could render the persister cells more susceptible to external ROS. To test this hypothesis, we treated E. coli HM22 persister cells with 100 μA for 20 min and followed by treatment with and without H2O2 (500 μM) for 1 h. These cells were then split into two parts: one for microscopic analysis and the other for CFU count. For microscopic study, cells were treated with 200 μM dichlorodihydrofluorescein diacetate (H2DCFDA, Sigma-Aldrich, St. Louis, Mo.) for 30 min in dark at room temperature. After incubation, cells were spin down and resuspended in PBS buffer for visualization using a fluorescence microscope (Axio Imager M1, ZEISS, Jena, Germany). The dye H2DCFDA can penetrate bacterial cells and get cleaved by cellular esterase to produce H2DCF. If there is any ROS present, this H2DCF will be converted to DCF and give fluorescence (Invitrogen, USA). […] For the CFU count, cells were plated on LB plates supplemented with DPA and incubated overnight at 37° C.

[2] = tested on: B. subtilis BE1500 biofilms; assay: Treatment of B. subtilis BE1500 biofilms with ampicillin and/or DC (CFU count); format: cell-based
Experimental: MIC is not a useful measurement of the response of biofilms to antibiotics because antibiotics added in the growth medium before inoculation could kill planktonic cells before they can form a biofilm. Therefore it is important to characterize the minimum bactericidal concentration (MBC) of ampicillin on established biofilms. B. subtilis BE1500 was cultured overnight as described above. Flat stainless steel electrodes were placed in a 100 mm petri dish with 20 mL LB medium, which was inoculated with 20 μL of an overnight culture. Biofilms were allowed to develop for 48 hours at 37° C. without shaking. The electrodes with biofilms were gently washed three times in 0.85% NaCl buffer and immersed in LB medium containing various concentrations of ampicillin for 15 min. Immediately after treatment, the electrodes with biofilms were placed in a 15 mL polystyrene test tube (Fisher Scientific) containing 4 mL 0.85% NaCl buffer and sonicated for 2 min to remove the biofilm cells from the surface. The stainless steel electrode was then removed and the tube was vortexed for 30 s to break up any remaining cell clusters. CFUs were counted after spreading the buffer with cells on LB agar plates and incubated overnight at 37° C.
Treatment of Biofilm Cultures with Ampicillin and DC. B. subtilis BE1500 biofilms were prepared as described for MBC experiments. Prior to treatment, biofilms were gently washed three times with 0.85% NaCl buffer. Each stainless steel coupon with biofilm was placed as the working electrode in the electrochemical cell cuvette shown in FIG. 16. Prior to placing the electrode with biofilm in the cuvette, 3 mL LB medium was added to the cuvette to prevent the biofilm from drying out. Samples were treated for 15 min with 0, 25, 83 and 250 μA/cm^2. Immediately after treatment, the biofilms were placed in a 15 mL polystyrene test tube containing 4 mL 0.85% NaCl buffer and sonicated for 2 min to remove the biofilm from electrode. The stainless steel electrode was then removed and the tube containing the cells and buffer was vortexed for 30 s to break up any remaining cell clusters. Cell densities were determined by plating the cultures on LB/agar plates and counting CFUs. The effect of current-generated ions was tested in the same way except that the cells were incubated in pre-treated LB in the absence of a current.

B. subtilis 168 = conditions: reported in the literature; cited from earlier work
[3] = tested on: planktonic B. subtilis BE1500; assay: Minimum inhibitory concentration of ampicillin on planktonic cells (OD600, 96-well plate); format: cell-based; conditions: Bacillus subtilis; LB medium, 24 hours, 37° C.
Experimental: Determination of Minimum Inhibitory Concentration and Minimum Bactericidal Concentrations. To determine the minimum inhibitory concentrations (MICs) of ampicillin on planktonic cells, B. subtilis 168 and B. subtilis BE1500 were cultured in LB medium overnight as described above. The overnight cultures were subcultured by a 1:1000 dilution in LB medium containing various concentrations of ampicillin with seven replicates in a 96-well plate and allowed to grow at 37° C. with shaking at 200 rpm for 24 hours. The OD600 was measured immediately after inoculations and at 24 hours after inoculation with a microplate reader (Model EL808, BioTek Instruments, Winooski, Vt.).

[4] = tested on: E. coli HM22 persister cells; format: cell-based; conditions: 0.85% NaCl buffer
Experimental: To evaluate the effects of electric currents, the persister cells were first isolated as described previously. Briefly, the exponential culture of HM22 at optical density at 600 nm (OD600) of 0.3 in LB medium was treated with 100 μg/mL ampicillin for 3 h to kill and lyse the normal cells. The persister cells were then collected by centrifugation at 8000 rpm at 4° C. for 10 min and resuspended in 0.85% NaCl buffer. Electrodes with a dimension of 1 cm×5.6 cm were cut from a flat 304L stainless steel sheet (MSC; Melville, N.Y.) or graphite sheet (McMaster-CARR, Santa Fe Springs, Calif.). The same material was used for both the counter electrode and working electrode, which were placed into a 4.5 mL standard-style polystyrene cuvette (Fisher Scientific; Hampton, N.H.). A 0.48 mm diameter silver wire (A-M Systems; Sequim, Wash.) was placed in bleach for 30 min to produce an Ag/AgCl reference electrode. The bottom 1″ of a borosilicate glass Pasteur pipette (Fisher) was cut and the reference wire was placed inside to prevent contact with the working or counter electrode. An AFCBP1 potentiostat/galvanostat (Pine Instrument Company, Grove City, Pa.) was connected via alligator clamps to the electrodes and used to control the current. The volume of medium in the fully-constructed electrochemical cell was 3 mL (see FIG. 2).

P. aeruginosa PAO1 = conditions: ciprofloxacin up to 200 μg/mL, 3.5 h, overnight culture
E. coli HM22 biofilms = assay: Killing of E. coli HM22 biofilm cells on 304L stainless steel coupons by tobramycin and/or direct current (CFU count); format: cell-based
Experimental: To determine if electric currents are also effective in killing persister cells in biofilms, E. coli HM22 biofilms were cultured on 304L stainless steel coupons. The biofilm-coated coupons were then used as anodic or cathodic electrode, and treated with direct current alone or with tobramycin together. Immediately after treatment, the cells were removed from the biofilm-coated coupons by sonication and vertexing. A portion of the cells was directly plated on LB+DPA plates to quantify the total number of viable cells by counting CFU, the other part of the sample was treated with 100 μg/mL ampicillin for another 3 h and plated on LB+DPA plates to quantify the number of the viable persister cells. This approach allowed us to study the killing effects on normal and persister cells separately.
However, treatments with 75 μA/cm^2 alone for 60 min reduced the number of viable persister cells by 3.5 logs. After treating biofilms with currents and tobramycin together for 60 min, the number of viable persister cells was reduced by 5.4 log (nearly complete killing, FIG. 4). Thus, synergy between electric currents and antibiotics also exist for killing persister cells in biofilms.

P. aeruginosa PAO1 cells = assay: Killing of P. aeruginosa PAO1 cells at exponential phase by tobramycin and/or electric current (CFU count); format: cell-based
Experimental: Continued experiments, for example, have already shown that the effects of electric current and synergy with antibiotics is not species specific, as similar results were shown using P. aeruginosa. The experiments were conducted in the same way as described for E. coli HM22. Briefly, an overnight culture of P. aeruginosa PAO1 was used to inoculate LB medium to an OD600 of ˜0.005 (1:1000 dilution of an overnight culture with LB) and incubated till OD600 reached ˜0.7. Then the cells were washed twice with 0.85% NaCl buffer and treated in the same way as described for planktonic E. coli cells. […] Treatment with 75 μA/cm^2 for 60 min reduced the number of viable P. aeruginosa PAO1 cells by 3 logs.

[5] = tested on: P. aeruginosa PAO1 persister cells; assay: Killing of P. aeruginosa PAO1 persister cells by tobramycin with electric current or pretreated buffer (CFU count); format: cell-based
Experimental: Thus, the 1% cells that survived the treatment were persister cells and treatment with 200 μg/mL Cip was used in the following experiments to harvest persister cells and ensure the complete killing of normal cells.
However, treatment with 75 μA/cm^2 (500 μA total) current reduced the number of viable persisters by ˜2.5 logs and another 2 logs of killing was obtained when treating with Tob together, as shown in FIG. 12. […] This is a significant advantage compared to traditional antibiotics, which commonly fail to kill bacterial cells that are in stationary phase or are persisters.
To understand if the killing by electric currents was due to the ions generated by electrochemical reactions, P. aeruginosa PAO1 persister cells were also treated with pretreated buffer, which was prepared by treating 0.85% NaCl buffer with SS304 stainless steel electrodes for the same current level and duration as used for the above experiments. The pretreated buffers were collected after 20, 40 or 60 min of treatment. P. aeruginosa PAO1 persister cells were collected as described above and resuspended in the pretreated buffers in the presence and absence of Tob. The cells were then incubated at room temperature without shaking for up to 1 h and samples were collected every 20 min to count CFU. […] The generation of ROS as described in E. coli HM22 data could be partially responsible for the killing. In addition, no synergy was observed between pretreated buffer and 1.5 μg/mL Tob.

[6] = tobramycin alone, 20 μg/mL or 150 μg/mL, compared to untreated control

In the case of OO [H2O2], the “accumulation of ROS in persister cells” value ([1]; H2O2 500 μM, 1 h, H2DCFDA fluorescence) is reported as “caused accumulation of ROS” and the “killing of persister cells (CFU)” value ([1]; electric current (100 μA, 20 min) followed by H2O2 500 μM for 1 h, versus either alone) is reported as “killed more persister cells than either the EC or H2O2 alone”.

For CC1(C)S[C@@H]2[C@H](NC(=O)[C@H](N)c3ccccc3)C(=O)N2[C@H]1C(=O)O [ampicillin], the “change in killing on adding ampicillin to current” value ([2]; 50 μg/mL ampicillin and 500 μA current, graphite electrodes, chlorine-free M56 buffer, versus current alone) was “slight decrease in killing”, the biofilm cells killed ([2]; 1000 μg/mL ampicillin alone for 15 min) was 59% and the “synergy of DC and ampicillin on biofilms” value ([2]; 83 μA/cm^2 DC and ampicillin together, stainless steel electrodes) was “no apparent synergy”. It also gave an inhibition at 50 µg/mL ([2]; Bacillus subtilis, BE1500BIOFILMS, 0.25 h, 50 μg/mL ampicillin with 500 μA DC current, 15 min, graphite electrodes, read-out: decrease in cell viability) of 44%, an inhibition at 100 µg/mL ([2]; Bacillus subtilis, BE1500BIOFILMS, 0.25 h, 100 μg/mL ampicillin with 83 μA/cm^2 DC, 15 min, 37° C., stainless steel electrodes, versus antibiotic alone, read-out: decrease in cell viability) of 79% and an inhibition at 1000 µg/mL ([2]; Bacillus subtilis, BE1500BIOFILMS, 0.25 h, 1000 μg/mL ampicillin with 83 μA/cm^2 DC, 15 min, 37° C., stainless steel electrodes, versus antibiotic alone, read-out: decrease in cell viability) of 86%. The inhibition at 50 µg/mL ([2]; Bacillus subtilis, BE1500BIOFILMS, 0.25 h, read-out: decrease in cell viability, 50 μg/mL ampicillin with 83 μA/cm^2 (500 μA) DC, 15 min, 37° C., stainless steel electrodes, LB, versus antibiotic alone) was 93%, the viability at 50 µg/mL ([2]; Bacillus subtilis, BE1500BIOFILMS, 50 μg/mL ampicillin with 500 μA DC current, graphite electrodes, chlorine-free M56 buffer, read-out: viability of biofilm cells (untreated control normalized as 100%)) was 74% and the MIC (B. subtilis 168) was 0.2 mg/L (≈ 0.572 µM). The MIC [3] was ≤ 2 mg/L.

In the case of CCn1nc(C(=O)O)c(=O)c2cc3c(cc21)OCO3 [cinoxacin], the “reduction in the number of viable persister cells” value ([4]; 20 μg/mL cinoxacin alone, graphite electrodes cell, 60 min) is reported as “no apparent reduction” and the “reduction in the number of viable persister cells” value ([4]; 20 μg/mL cinoxacin together with 75 μA/cm^2 current, graphite electrodes) is reported as “more than 5 log”.

In the case of O=C(O)c1cn(C2CC2)c2cc(N3CCNCC3)c(F)cc2c1=O [ciprofloxacin], the “cells that survived the treatment” value (P. aeruginosa PAO1) is reported as 1%.

In the case of NC[C@H]1O[C@H](O[C@H]2[C@H](O)[C@@H](O[C@H]3O[C@H](CO)[C@@H](O)[C@H](N)[C@H]3O)[C@H](N)C[C@@H]2N)[C@H](N)C[C@@H]1O [tobramycin], the “reduction of number of viable persister cells in biofilm” value (E. coli HM22 biofilms; currents (75 μA/cm^2 DC) and tobramycin (20 μg/mL) together for 60 min) is reported as 5.4 log, the “reduction in number of viable persister cells in biofilm” value (E. coli HM22 biofilms; [6]) is reported as “no significant reduction” and the “reduction in total number of viable cells in biofilm” value (E. coli HM22 biofilms; [6]) is reported as “no significant reduction”. For the same molecule, the “killing of viable cells” value (P. aeruginosa PAO1 cells; 1.5 μg/mL Tob alone, 0.85% NaCl buffer) was “did not cause any significant killing”, the “killing of viable cells” value (P. aeruginosa PAO1 cells; 1.5 μg/mL Tob combined with 75 μA/cm^2 for 60 min) was “up to 5 logs” and the “killing of persister cells” value ([5]; 1.5 μg/mL Tob alone) was “not able to kill”. For the same molecule, the “synergy between pretreated buffer and Tob” value ([5]; 1.5 μg/mL Tob in 0.85% NaCl buffer pretreated with SS304 electrodes, no current, up to 1 h) was “no synergy”, the “additional killing of persister cells beyond current alone” value ([5]; 1.5 μg/mL Tob together with 75 μA/cm^2 (500 μA total) current) was 2 logs and the “synergy with electric current in killing persister cells” value ([4]; tobramycin with 75 μA/cm^2 DC, graphite electrodes) was “synergistic effect”.
